In US8389482B2, “Short peptides useful for treatment of ischemia/reperfusion injury and other tissue damage conditions associated with nitric oxide and its reactive species” (New York University, priority 2007, dated 2013):
Residues, ends and D or L forms follow the SMILES beside them.

How the values were obtained:
[1] = test system: rat model of myocardial infarction; assay: Myocardial ischemia-reperfusion (MI/R) injury in a rat model of myocardial infarction, infarct size NA/AR; type: in vivo
Procedure: (§1) Myocardial ischemia (MI) was produced in anaesthetized adult male Wistar rats (300-350 grams) under controlled ventilation. After thoracotomy at the fourth intercostal space, the heart was exteriorized and a 6-0 silk ligature was passed under the left coronary artery with a needle. After 30 minutes of MI, the ligature was released and the myocardium was reperfused for 1 hour. Rats were randomized 5 minutes after the beginning of reperfusion to receive either vehicle (control, n=6) or L-CEFH peptide (0.7 mg/kg; n=9) i.v. The extent of MI/R injury, or infarct size, was determined by calculating the ratio of the area of necrosis (NA) to the area at risk (AR). Accumulation of 3-NT in the tested heart tissue corresponding to the area at risk was analyzed by Western dot-immunoblotting of total protein (extracted from the area at risk) with antibodies against 3-NT.
Rat model of myocardial infarction was generated as disclosed in Example 3, above. 0, 0.02, 0.05, 0.1, 0.14, 0.35, and 0.7 mg/kg of D-CEFH peptide (N≦4 for each concentration) were administered i.v. The extent of MI/R injury, or infarct size, was determined by calculating the ratio of the area of necrosis (NA) to the area at risk (AR).

[2] = test system: 3-nitrotyrosine (3-NT) in myocardial tissue; assay: 3-NT accumulation in heart tissue (area at risk) in a rat model of MI, dot-immunoblotting with anti-3-NT antibodies; type: in vivo; details: 0.7 mg/kg i.v. 5 minutes after beginning of reperfusion
Procedure: as §1

[3] = test system: peroxynitrite (ONOO)-nitrated albumin; assay: In vitro denitration of peroxynitrite-nitrated albumin, dot-immunoblotting with antibodies against 3-NT; type: biochemical; details: 20 μM peptide, 10 mM Tris HCl pH 7.2, 25° C., after 10 minutes
Text: Several groups have previously reported an in vivo denitration phenomenon (e.g., Kamisaki et al (1998) Proc Natl Acad Sci USA 95: 11584-11589; Aulak et al (2004) Am J Physiol Heart Circ Physiol 286: H30-H38). However, they tried to isolate denitration activity using pure 3-NT and failed. The present inventors have hypothesized that the stability of pure 3-NT is much higher than the stability of 3-NT incorporated in a protein and used ONOO-nitrated albumin as the substrate for detecting denitration activity.
To test the ability of L-CEFH peptide (Cys-Glu-Phe-His; SEQ ID NO: 1) to mediate 3-NT denitration in vitro, 20 μM CEFH peptide solution containing 10 mM Tris HCl pH 7.2 was added to albumin previously nitrated by peroxynitrite (ONOO^−). Denitration of the peroxynitrite (ONOO)-nitrated albumin following 0, 3, or 10 minutes of incubation with L-CEFH peptide was then visualized by dot-immunoblotting with antibodies against 3-NT.

[4] = test system: HeLa cells; assay: HeLa cell survival upon NO/ONOO- exposure, MTS-based assay; details: 20 μM peptide vs 5 mM cysteine
Procedure: The ability of the L-CEFH peptide (Cys-Glu-Phe-His; SEQ ID NO: 1) to reduce cell death caused by nitric oxide (NO) and peroxynitrite (ONOO^−) was tested in cell culture. Following treatment with NO/ONOO^−, HeLa cells were incubated with either a control buffer, 5 mM cysteine, or 20 μM L-CEFH peptide for 40 minutes. The percentage of cells surviving was determined by a MTS-based assay (available from Promega, Madison, Wis.).

[5] = test system: myocardial ischemia (MI) in rats; details: cited from earlier work
[6] = test system: myocardial tissue 3-NT; details: cited from earlier work
[7] = 5 mg/kg i.v., infused 1 minute prior to ischemia

N[C@@H](CS)C(=O)N[C@@H](CCC(=O)O)C(=O)N[C@@H](Cc1ccccc1)C(=O)N[C@@H](Cc1c[nH]cn1)C(=O)O [L-CEFH, Cys-Glu-Phe-His] (H-CEFH-OH; N-terminus and C-terminus assumed)
decrease in the infarct size (NA/AR) as compared to the control ([1]; 0.7 mg/kg i.v. 5 minutes after beginning of reperfusion, 30 min MI, 1 hour reperfusion): 3-5 fold | dose producing maximal effect in preventing MI/R injury ([1]; i.v., rat model of MI): 0.7 mg/kg | reduction of 3-NT accumulation as compared to the control [2]: about 70% | denitration of peroxynitrite (ONOO)-nitrated albumin [3]: > 90% | times lower concentration than cysteine giving equivalent efficacy [4]: 250 times

Cys-Glu-Phe-His [D-CEFH]
fold lower concentration than L-CEFH for the same effect in preventing MI/R injury ([1]; 0.05 mg/kg vs 0.7 mg/kg, i.v.): 14 fold | activity in preventing MI/R injury as compared to L-CEFH ([1]; i.v., rat model of MI): superior activity | dose producing maximal effect in preventing MI/R injury ([1]; i.v., rat model of MI): 0.1 mg/kg | dose producing the same effect as the maximal effect of L-CEFH (0.7 mg/kg) ([1]; i.v., rat model of MI): 0.05 mg/kg

O=NO [sodium nitrite]
I/R infarct size compared with saline treated controls [5, 7]: significant expansion | myocardial tissue 3-NT accumulation compared with saline treated controls [6, 7]: significant expansion

COC(=O)[C@@H](N)CCCNC(=N)N[N+](=O)[O-] [L-NAME]
infarct size ([5]; 50 mg/kg i.p.): reduction | 3-NT ([6]; 50 mg/kg i.p.): reduction
